From patent publication US20180208605A1, “Substituted Aza Compounds as IRAK-4 Inhibitors” (AURIGENE DISCOVERY TECHNOLOGIES LIMITED, priority 2015, published 2018)
Where a name gives a salt, the structure may show the parent alone.

Target: T1, recombinant IRAK-4 kinase (Homo sapiens, UniProt Q9NWZ3)
T1 construct: purchased Millipore, USA
T1 sequence (Q9NWZ3 1-460): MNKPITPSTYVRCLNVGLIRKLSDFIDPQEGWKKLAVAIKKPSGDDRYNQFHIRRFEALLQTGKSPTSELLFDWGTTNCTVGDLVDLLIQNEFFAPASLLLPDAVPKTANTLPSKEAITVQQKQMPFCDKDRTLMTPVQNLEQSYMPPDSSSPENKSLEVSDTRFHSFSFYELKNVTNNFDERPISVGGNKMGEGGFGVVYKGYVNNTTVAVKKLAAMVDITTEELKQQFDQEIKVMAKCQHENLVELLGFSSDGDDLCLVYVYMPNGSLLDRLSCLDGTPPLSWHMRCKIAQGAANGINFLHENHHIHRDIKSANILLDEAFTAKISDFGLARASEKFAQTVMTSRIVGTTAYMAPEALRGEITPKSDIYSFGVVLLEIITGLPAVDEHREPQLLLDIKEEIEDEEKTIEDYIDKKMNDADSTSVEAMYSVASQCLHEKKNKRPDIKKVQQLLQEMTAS
Assay: IRAK-4 Biochemical Assay (TR-FRET, percent inhibition)
Settings: TR-FRET, 20 μM ATP, 100 nM Biotin Histone H3; for inhibition at 0.1 µM: read-out: % inhibition of IRAK-4 @0.1 μM, compound at 0.1 μM; for inhibition at 1 µM: read-out: % inhibition of IRAK-4 @ 1 μM, compound at 1 μM
Procedure, shortened: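 IRAK-4 pre-incubated with compound 30 min at room temperature in Tris-HCl pH 7.5 buffer with MgCl2, MnCl2 and DTT, then reacted 30 min with 100 nM biotin-histone H3 and 20 μM ATP. EDTA stop with Eu-anti-phospho-H3 (Ser10) and APC-streptavidin. Percent inhibition derived from the 665/615 nm emission ratio at 340 nm excitation.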

O=C(Nc1cc2sc(N3CCOCC3)nc2nc1N1CCCCC1)c1cccc(N2CCO[C@@H](CO)C2)n1 [Example 33, (R)-6-(2-(hydroxymethyl)morpholino)-N-(2-morpholino-5-(piperidin-1-yl)thiazolo[4,5-b]pyridin-6-yl)picolinamide]
inhibition at 0.1 µM: 95%
inhibition at 1 µM: 97%

Cc1cc(-c2nc(C(=O)Nc3cc4sc(N5CCN(C(=O)CO)CC5)nc4nc3N3CCCCC3)co2)ccn1 [Example 10, N-(2-(4-(2-hydroxyacetyl)piperazin-1-yl)-5-(piperidin-1-yl)thiazolo[4,5-b]pyridin-6-yl)-2-(2-methylpyridin-4-yl)oxazole-4-carboxamide hydrochloride]
inhibition at 0.1 µM: 100%
inhibition at 1 µM: 100%

O=C(Nc1cc2sc(N3CCOCC3)nc2nc1N1CCCCC1)c1cccc(N2CC(C(=O)O)NC2=O)n1 (stereo not drawn) [Example 49, 1-(6-((2-morpholino-5-(piperidin-1-yl)thiazolo[4,5-b]pyridin-6-yl)carbamoyl)pyridin-2-yl)-2-oxoimidazolidine-4-carboxylic acid]
inhibition at 0.1 µM: 79%
inhibition at 1 µM: 96%

Cc1ccc(C(=O)Nc2cc3sc(N4CCOCC4)nc3nc2N2CCCCC2)nc1N1CC[C@H](O)C1 [Example 84, (S)-6-(3-hydroxypyrrolidin-1-yl)-5-methyl-N-(2-morpholino-5-(piperidin-1-yl)thiazolo[4,5-b]pyridin-6-yl)picolinamide]
inhibition at 0.1 µM: 94%
inhibition at 1 µM: 98%

O=C(Nc1cc2sc(N3CCOCC3)nc2nc1N1CCCCC1)c1cccc(N2CCC(CO)CC2)n1 [Example 32, 6-(4-(hydroxymethyl)piperidin-1-yl)-N-(2-morpholino-5-(piperidin-1-yl)thiazolo[4,5-b]pyridin-6-yl)picolinamide]
inhibition at 0.1 µM: 93%
inhibition at 1 µM: 95%

NCC(=O)O[C@H]1CCN(c2cccc(C(=O)Nc3cc4sc(N5CCOCC5)nc4nc3N3CCCCC3)n2)C1 [Example 36, (S)-1-(6-((2-morpholino-5-(piperidin-1-yl)thiazolo[4,5-b]pyridin-6-yl)carbamoyl)pyridin-2-yl)pyrrolidin-3-ylglycinate 2,2,2-trifluoroacetate]
inhibition at 0.1 µM: 94%
inhibition at 1 µM: 99%

Cc1cc(-c2ncc(C(=O)Nc3cc4sc(N5CCOCC5)nc4nc3N3CCC(O)(CO)CC3)o2)ccn1 [Example 4, N-(5-(4-hydroxy-4-(hydroxymethyl)piperidin-1-yl)-2-morpholinothiazolo[4,5-b]pyridin-6-yl)-2-(2-methylpyridin-4-yl)oxazole-5-carboxamide hydrochloride]
inhibition at 0.1 µM: 99%
inhibition at 1 µM: 99%

O=C(Nc1cc2sc(N3CCOCC3)nc2nc1N1CCCCC1)c1cccc(N2CCC[C@@H](O)C2)n1 [Example 30, (R)-6-(3-hydroxypiperidin-1-yl)-N-(2-morpholino-5-(piperidin-1-yl)thiazolo[4,5-b]pyridin-6-yl)picolinamide]
inhibition at 0.1 µM: 98%
inhibition at 1 µM: 99%

Cc1cc(-c2nc(C(=O)Nc3cc4sc(N5CCOCC5)nc4nc3N3CCC(O)(CO)C3)co2)ccn1 (stereo not drawn) [Example 9, N-(5-(3-hydroxy-3-(hydroxymethyl)pyrrolidin-1-yl)-2-morpholinothiazolo[4,5-b]pyridin-6-yl)-2-(2-methylpyridin-4-yl)oxazole-4-carboxamide hydrochloride]
inhibition at 0.1 µM: 101%
inhibition at 1 µM: 99%

Cc1cc(-c2nc(C(=O)Nc3cc4oc(N5CCOCC5)nc4nc3N3CC(C)(C)CC3=O)co2)ccn1 [Example 86, N-(5-(4,4-dimethyl-2-oxopyrrolidin-1-yl)-2-morpholinooxazolo[4,5-b]pyridin-6-yl)-2-(2-methylpyridin-4-yl)oxazole-4-carboxamide]
inhibition at 0.1 µM: 65%
inhibition at 1 µM: 57%

Cc1cc(-c2nc(C(=O)Nc3cc4oc(N5CCOCC5)nc4nc3OC3CCC(N4CCOCC4)CC3)co2)ccn1 (stereo not drawn) [Example 16, 2-(2-methylpyridin-4-yl)-N-(2-morpholino-5-(((1r,4r)-4-morpholinocyclohexyl)oxy)oxazolo[4,5-b]pyridin-6-yl)oxazole-4-carboxamide hydrochloride]
inhibition at 0.1 µM: 94%
inhibition at 1 µM: 99%

NC1CCCN(c2ccn3ncc(C(=O)Nc4cc5sc(N6CCOCC6)nc5nc4C4CC4)c3n2)C1 (stereo not drawn) [Example 21, 5-(3-aminopiperidin-1-yl)-N-(5-cyclopropyl-2-morpholinothiazolo[4,5-b]pyridin-6-yl)pyrazolo[1,5-a]pyrimidine-3-carboxamide]
inhibition at 0.1 µM: 97%
inhibition at 1 µM: 98%
